Assay results reported in paper PMC5956890 (Journal of medicinal chemistry, 2017).
Structures can show the parent of a compound that is named as a salt.

What was measured:
PPARδ [1] = target: T1, PPARδ (Homo sapiens, UniProt Q03181); experiment: TR-FRET competitive binding assay PPARδ; details: concentration-response
T1 sequence (Q03181 1-441): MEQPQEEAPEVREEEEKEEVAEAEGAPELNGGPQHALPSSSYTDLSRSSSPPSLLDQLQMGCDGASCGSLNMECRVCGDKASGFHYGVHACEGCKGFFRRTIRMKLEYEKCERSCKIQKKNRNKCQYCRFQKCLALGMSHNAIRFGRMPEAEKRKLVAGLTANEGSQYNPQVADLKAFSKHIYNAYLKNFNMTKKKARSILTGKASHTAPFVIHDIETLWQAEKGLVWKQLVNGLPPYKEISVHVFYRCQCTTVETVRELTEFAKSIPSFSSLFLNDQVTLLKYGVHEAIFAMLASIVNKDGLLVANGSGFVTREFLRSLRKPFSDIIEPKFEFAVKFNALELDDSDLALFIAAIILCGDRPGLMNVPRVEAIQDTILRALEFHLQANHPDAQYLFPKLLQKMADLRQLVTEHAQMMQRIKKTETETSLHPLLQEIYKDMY

hBM-MSCs [2] = experiment: Oil Red O staining of lipid droplets in hBM-MSCs; format: cell-based, human; details: compared with IDX control, 7th day
hBM-MSCs [3] = experiment: adiponectin production during adipogenesis in hBM-MSCs; details: for adipogenesis in hBM-MSCs: compared to control; for adiponectin production during adipogenesis: compared to IDX control
[4] = system: ANGPTL4 and PDK4 gene transcription; experiment: Q-RT-PCR of ANGPTL4 and PDK4 mRNA in hBM-MSCs; format: cell-based, human; details: 3rd day after induction of adipogenesis
PPARγ = target: T2, PPARγ (Homo sapiens, UniProt P37231); experiment: TR-FRET competitive binding assay PPARγ; details: concentration-response
T2 sequence (P37231 235-505 limits assumed): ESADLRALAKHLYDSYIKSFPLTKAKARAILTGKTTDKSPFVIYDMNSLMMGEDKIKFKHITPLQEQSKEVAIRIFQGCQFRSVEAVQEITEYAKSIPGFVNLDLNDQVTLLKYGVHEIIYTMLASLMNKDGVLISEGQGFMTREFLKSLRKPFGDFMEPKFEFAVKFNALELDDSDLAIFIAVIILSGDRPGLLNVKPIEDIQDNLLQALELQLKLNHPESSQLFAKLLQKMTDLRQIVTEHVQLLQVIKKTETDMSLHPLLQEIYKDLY

[5] = system: human AR-transfected murine osteoblast precursor cell line 7F2; details: cited from earlier work
PPARδ [6] = target: T3, PPARδ (Homo sapiens, UniProt Q03181); experiment: TR-FRET PPARδ corepressor assay; format: biochemical; details: SMRT-ID2 peptide
T3 sequence (Q03181 211-439 limits assumed): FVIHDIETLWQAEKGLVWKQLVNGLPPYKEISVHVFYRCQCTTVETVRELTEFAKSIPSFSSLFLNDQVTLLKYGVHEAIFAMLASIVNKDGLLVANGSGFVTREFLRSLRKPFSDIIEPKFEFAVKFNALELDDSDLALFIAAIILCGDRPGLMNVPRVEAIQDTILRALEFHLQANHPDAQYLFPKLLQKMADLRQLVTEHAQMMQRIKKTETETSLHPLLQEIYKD

PPARδ [7] = target: T3, PPARδ; experiment: TR-FRET PPARδ coactivator assay; format: biochemical; details: compound alone
[8] = system: STZ-induced diabetic C57BL/6J mice; experiment: STZ-induced diabetes mouse model; format: in vivo; details: oral 20 mg/kg for 5 days, male C57BL/6J
PPARα = target: T4, PPARα (Homo sapiens, UniProt Q07869); experiment: TR-FRET competitive binding assay PPARα; details: up to 20 µM
T4 sequence (Q07869 200-468 limits assumed): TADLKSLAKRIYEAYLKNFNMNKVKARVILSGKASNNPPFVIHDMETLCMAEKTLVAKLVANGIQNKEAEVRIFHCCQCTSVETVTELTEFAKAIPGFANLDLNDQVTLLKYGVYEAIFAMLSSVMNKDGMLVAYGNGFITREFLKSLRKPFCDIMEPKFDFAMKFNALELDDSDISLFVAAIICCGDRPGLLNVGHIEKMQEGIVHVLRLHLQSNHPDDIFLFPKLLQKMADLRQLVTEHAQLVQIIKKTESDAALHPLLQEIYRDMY

CNC(=O)[C@H]1S[C@@H](n2cnc3c(NCc4cccc(I)c4)nc(Cl)nc32)[C@H](O)[C@@H]1O [Compound 1d]
PPARδ binding activity (PPARδ [1]): most potent inhibitor among A3 AR agonists

Cn1c(=O)c2c(ncn2C)n(C)c1=O [caffeine]
lipid droplets in differentiated adipocytes (ORO staining) (hBM-MSCs [2]): decreased them | adipogenesis in hMSCs (hBM-MSCs [3]; 1 mM): inhibited adipogenesis

Cc1cc(SCc2sc(-c3ccc(C(F)(F)F)cc3)nc2C)ccc1OCC(=O)O [Compound 22, 2-[2-methyl-4-[[[4-methyl-2-[4-(trifluoromethyl)phenyl]-5-thiazolyl]methyl]thio]phenoxy]acetic acid]
ANGPTL4 mRNA level [4]: significantly increased ANGPTL4 and PDK4 gene transcription | PDK4 mRNA level [4]: significantly increased ANGPTL4 and PDK4 gene transcription

CCCn1cc2c(nc(NC(=O)Nc3ccc(OC)cc3)n3nc(-c4ccco4)nc23)n1 [Compound 18, N-[2-(2-furanyl)-8-propyl-8H-pyrazolo[4,3-e][1,2,4]triazolo[1,5-c]pyrimidin-5-yl]-N′-(4-methoxyphenyl)-urea]
adipogenesis in hBM-MSCs (hBM-MSCs [3]): no effect on adipogenesis

CNC(=O)[C@@]12C[C@@H]1[C@@H](n1cnc3c(NCc4cccc(Cl)c4)nc(C#Cc4ccc(F)c(F)c4)nc31)[C@H](O)[C@@H]2O [Compound 17, (1S,2R,3S,4R,5S)-4-[6-[[(3-chlorophenyl)methyl]-amino]-2-[2-(3,4-difluorophenyl)ethynyl]-9H-purin-9-yl]-2,3-dihydroxy-N-methylbicyclo[3.1.0]hexane-1-carboxamide]
adipogenesis in hBM-MSCs (hBM-MSCs [3]): no effect on adipogenesis

COC(=O)c1sccc1S(=O)(=O)Nc1ccc(Nc2ccccc2)cc1OC [Compound 23, 3-[[[2-methoxy-4-(phenylamino)phenyl]-amino]sulfonyl]-2-thiophenecarboxylic acid methyl ester]
ANGPTL4 mRNA level [4]: did not affect ANGPTL4 and PDK4 mRNA levels | PDK4 mRNA level [4]: did not affect ANGPTL4 and PDK4 mRNA levels

COc1ccc(Cl)cc1C(=O)NCCc1ccc(S(=O)(=O)NC(=O)NC2CCCCC2)cc1 [glibenclamide]
PPARγ binding activity (PPARγ): showed PPARγ binding activity

OC[C@H]1O[C@@H](n2cnc3c(NC4CCCC4)nc(Cl)nc32)[C@H](O)[C@@H]1O [Compound 14, 2-chloro-N^6-cyclopentyladenosine]
increase of adipocyte differentiation [5]: 20–30% | adiponectin production during adipogenesis (hBM-MSCs [3]): no significant effect | adipogenesis in hBM-MSCs (hBM-MSCs [3]): did not significantly promote adipogenesis

O=C(NCCS(=O)(=O)c1ccc(C(F)(F)F)cn1)c1ccc(Cl)cc1 [Compound 24, 4-chloro-N-[2-[[5-(trifluoromethyl)-2-pyridinyl]sulfonyl]ethyl]benzamide]
ANGPTL4 mRNA level [4]: did not affect ANGPTL4 and PDK4 mRNA levels | PDK4 mRNA level [4]: did not affect ANGPTL4 and PDK4 mRNA levels | interaction between PPARδ and corepressor peptide (PPARδ [6]): significantly promoted the recruitment of the corepressor peptide

Nc1ncnc2c1ncn2[C@@H]1O[C@H](CO)[C@@H](O)[C@H]1O [adenosine]
adiponectin production during adipogenesis (hBM-MSCs [3]): no significant effect

CNC(=O)[C@H]1S[C@@H](n2cnc3c(NCc4cccc(I)c4)ncnc32)[C@H](O)[C@@H]1O [Compound 1c]
recruitment of labeled coactivator peptide to PPARδ (PPARδ [7]): no effect on the recruitment of the labeled coactivator peptide | PPARγ binding activity (PPARγ): very weak binding activity | serum glucose levels [8]: significantly decreased serum glucose levels | serum triglyceride levels [8]: downregulated serum triglyceride levels | interaction between PPARδ and corepressor peptide (PPARδ [6]): enhanced the interaction of PPARδ with the corepressor peptide | replacement of labeled PPARα ligand binding (PPARα): ≤ 50%

CCNC(=O)[C@H]1O[C@@H](n2cnc3c(N)nc(NCCc4ccc(CCC(=O)O)cc4)nc32)[C@H](O)[C@@H]1O [Compound 16, 2-p-(2-carboxyethyl)phenethylamino-5′-N-ethylcarboxamidoadenosine hydrochloride hydrate]
adiponectin production during adipogenesis (hBM-MSCs [3]): no significant effect
